How the values were obtained:
[1] = test system: Leptosphaeria nodorum (LEPTNO); test: In vitro fungitoxicity (growth inhibition) assay in copper-minus / copper-plus liquid medium; assay type: cell-based; details: for inhibition of growth at 0.05 µg/mL: Parastagonospora nodorum, copper-minus medium, light scattering, read-out: LEPTNO % Inhn. Minus Copper Observed; for inhibition of growth at 0.05 µg/mL / LEPTNO % Inhn. Plus Copper Observed: test compound at 0.05 μg/mL, 72 h at 25° C.; for LEPTNO % Inhn. Plus Copper Observed: copper-plus medium (CuCl2.2H2O)
Experimental: In vitro fungitoxicity assays against Leptosphaeria nodorum (LEPTNO) were conducted using the liquid growth medium described by Coursen and Sisler (American Journal of Botany 1960, 47, 541-549) except that copper micronutrient, normally included as CuSO4, was omitted. The medium, termed “copper-minus,” was prepared by dissolving 10 g glucose, 1.5 g K2HPO4, 2 g KH2PO4 and 1 g (NH4)2SO4 in 1 liter of deionized water and treating the solution with 0.5 g Chelex 100 resin (Bio-Rad Analytical grade, 50-100 mesh, sodium form, cat#142-2822) by stirring at room temperature for 1 h. MgSO4.7H2O (0.5 g) was added, and stirring was continued for a further hour. Trace elements (minus CuSO4), and vitamins described by Coursen and Sisler were added from concentrated stock solutions and the entire medium was sterilized by filtration. Medium containing copper was prepared by adding CuCl2.2H2O to the copper-minus medium at 20 μM. Test compounds were dissolved in dimethylsulfoxide (DMSO) at 10 μg/mL and 1 μL aliquots were added to two wells of flat-bottomed 96-well microtiter plates. Copper-minus medium (100 μL) was added to one of the wells and copper-plus medium to the second well. Control wells, included for each medium, received 1 μL DMSO and 100 μL of medium.
LEPTNO was grown on potato dextrose agar in 9 cm diameter petri dishes for 7 days. Sterile deionized water (20 mL) was added to a culture plate and spores suspended by scraping the surface gently with a sterile plastic loop. The resulting suspension was filtered through a double layer of sterile cheesecloth. Filtered spore suspension (5 mL) was centrifuged in a bench centrifuge at 2000 rpm for 2 min. The resulting spore pellet was resuspended in 10 mL sterile deionized water (which had been treated with Chelex 100 resin using 0.5 g resin per liter of water by stirring at room temperature for 1 h), and recentrifuged. The spores were resuspended in copper-minus medium, and the suspension adjusted to 2×10^5 spores per mL. Microtiter plates were inoculated with 100 μL of this spore suspension and the plates incubated at 25° C. for 72 h before assessing fungal growth by measuring light scattering in a NepheloStar plate reader. Growth inhibition was determined by comparing growth in the presence of test compound with growth in control wells lacking test compound.
Results for growth inhibition by test compounds at 0.05 μg/mL in copper-plus medium (% Inhn. Plus Copper Observed) were compared with predicted values (% Inhn. Plus Copper Predicted) that were calculated using the formula set forth by S. R. Colby in Weeds 1967, 15, 20-22 based on results obtained for the same compounds in copper-minus medium (% Inhn. Minus Copper Observed) and the inhibition attributed to copper chloride alone, as determined by comparing growth in copper-minus and copper-plus media without any test compound across experiments. Results illustrate that hydrazones and copper produce a synergistic fungitoxic effect towards LEPTNO.

[2] = test system: Phytophthora infestans; assay type: in vivo; details: hydrazone 50 ppm plus 50 μM CuCl2.2H2O, applied 24 h before inoculation, assessed 7 days after inoculation, tomato plants

Row | SMILES | inhibition of growth at 0.05 µg/mL [1] [%] | LEPTNO % Inhn. Plus Copper Observed [1] [%] | TLB % control [2] [%] | melting point [°C] | LEPTNO % inhibition attributed to copper chloride alone ([1]; CuCl2 10 μM, no test compound, growth in copper-plus vs copper-minus medium across experiments) [%]
1 | Cc1ccc(C(=O)N/N=C2\CCc3c(Cl)cc(Cl)c(O)c32)cc1 [Compound 1, 4-Methylbenzoic acid [4,6-dichloro-7-hydroxy-indanylidine]hydrazide] | 15.2 | 96.8 | 78 | 218 to 222 | 
2 | O=C(N/N=C1\CCc2c(Cl)cc(Cl)c(O)c21)c1ccc(Cl)cc1 [Compound 2] | 16.7 | 96.8 | 78 | 252 to 255 | 
3 | O=C(N/N=C1\CCc2c(Cl)cc(Cl)c(O)c21)c1ccccc1O [Compound 3] | 24.9 | 97.1 | 55 | 285 to 290 | 
4 | COc1ccc(C(=O)N/N=C2\CCc3c(Cl)cc(Cl)c(O)c32)cc1 [Compound 4] | 3.5 | 96.6 | 64 | 230 to 233 | 
5 | O=C(N/N=C1\CCc2c(Cl)cc(Cl)c(O)c21)c1ccc(C(F)(F)F)cc1 [Compound 5] | 20.7 | 97.2 | 53 | 245 to 248 | 
6 | O=C(N/N=C1\CCc2c(Cl)cc(Cl)c(O)c21)c1ccccc1 [Compound 6] | 23.1 | 94.1 | 95 | 243 to 245 | 
7 | O=C(N/N=C1\CCc2cccc(O)c21)c1ccccc1 [Compound 7] | 0 | 95.3 | 61 | 192 to 194 | 
8 | Cc1ccc(C(=O)N/N=C2\CCc3c(Cl)cc(Cl)c(O)c32)c(O)c1 [Compound 8] | 0 | 96.9 | 69 | 284 to 288 | 
9 | O.O.[Cl][Cu][Cl] [CuCl2, CuCl2.2H2O, reference compound] |  |  |  |  | 13.2
